We go through nine molecules from patent publication US11046680B1, “Heteroaryl-substituted triazoles as APJ receptor agonists” (priority 2016, dated 2021).

Sequence of human APJ receptor (P35414 whole entry): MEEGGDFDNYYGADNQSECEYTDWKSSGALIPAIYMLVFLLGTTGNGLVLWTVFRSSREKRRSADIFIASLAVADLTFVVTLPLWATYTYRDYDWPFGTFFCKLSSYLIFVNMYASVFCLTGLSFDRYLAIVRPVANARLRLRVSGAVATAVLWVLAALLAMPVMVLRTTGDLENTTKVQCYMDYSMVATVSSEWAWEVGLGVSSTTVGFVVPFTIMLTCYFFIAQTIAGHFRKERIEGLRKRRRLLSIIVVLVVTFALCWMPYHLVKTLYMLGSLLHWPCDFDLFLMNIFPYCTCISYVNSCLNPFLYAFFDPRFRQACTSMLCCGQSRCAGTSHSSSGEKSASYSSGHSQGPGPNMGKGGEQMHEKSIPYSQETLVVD

The target of the first series is human APJ receptor (Homo sapiens (Human), UniProt P35414). Nature of the series: biochemical. The class given is biochemical. To be noted: [35S]GTPγS binding, CHO membranes expressing human APJ receptor; read-out: Activity hAPJ SPA EC50 IP. In outline:
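Membranes of a stable CHO line carrying human APJ (pFLAG-CMV-3) were used in a GTPγS binding format; buffer GDP, MgCl2 and NaCl were optimized, and plates were read after 90 min at RT.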
A general note: GTPγS resists hydrolysis and so accumulates on activated G proteins.
As usually defined, the EC50 is the concentration that produces a half-maximal response. With `COc1cccc(OC)c1-n1c(NS(=O)(=O)[C@H](C)[C@@H](C)c2ncc(F)cn2)nnc1-c1nc(C)cs1` (single isomer, unassigned) [Example 121.0], the EC50 was found to be 12 nM. On the same count and under the same terms, the value for `COc1cccc(OC)c1-n1c(NS(=O)(=O)[C@@H](C)[C@H](OC)c2ncc(Cl)cn2)nnc1-c1cnn(C)c1C(C)C` [Example 501.0, (1R,2S)-1-(5-chloropyrimidin-2-yl)-N-(4-(2,6-dimethoxyphenyl)-5-(5-isopropyl-1-methyl-1H-pyrazol-4-yl)-4H-1,2,4-triazol-3-yl)-1-methoxypropane-2-sulfonamide] was 9.3 nM; that for `COc1ncnc(OC)c1-n1c(NS(=O)(=O)[C@@H](C)[C@H](OC)c2ccc(Cl)cn2)nnc1-c1ccn(C)n1` (single isomer, unassigned) [Example 288.0] was 1.3 nM; that for `COCC1(n2c(NS(=O)(=O)[C@@H](C)[C@H](OC)c3ncc(Cl)cn3)nnc2-c2cnn3ccccc23)CCC1` [Example 508.0] was 62 nM. As to `CO[C@H](c1ncc(C)cn1)[C@H](C)S(=O)(=O)Nc1nnc(-c2ccn(C)n2)n1-c1c(F)cccc1F` [Example 233.0, (1R,2S)-N-(4-(2,6-difluorophenyl)-5-(1-methyl-1H-pyrazol-3-yl)-4H-1,2,4-triazol-3-yl)-1-methoxy-1-(5-methyl-2-pyrimidinyl)-2-propanesulfonamide], the EC50 is 17 nM. As to `CO[C@H](c1ncc(Cl)cn1)[C@H](C)S(=O)(=O)Nc1nnc(-c2noc3ccccc23)n1C1CC1` [Example 506.0, (1R,2S)-N-(5-(benzo[d]isoxazol-3-yl)-4-cyclopropyl-4H-1,2,4-triazol-3-yl)-1-(5-chloropyrimidin-2-yl)-1-methoxypropane-2-sulfonamide], the EC50 was 260 nM.

Turning to `CO[C@H](c1cnc(C)cn1)[C@H](C)S(=O)(=O)Nc1nnc(-c2ccn(C)n2)n1-c1c(F)cccc1F` [Example 232.0, (1R,2S)-N-(4-(2,6-difluorophenyl)-5-(1-methyl-1H-pyrazol-3-yl)-4H-1,2,4-triazol-3-yl)-1-methoxy-1-(5-methyl-2-pyrazinyl)-2-propanesulfonamide], the EC50 worked out at 54 nM.

A further series deals with heart failure rat model (MI Rat Model). In words: In vivo cardiac contractility in heart failure (MI) rat model. Details: species or system Lewis rat. To be noted: heart failure rats in vivo, acute settings. As for the experimental part:
Evidence for Improvement in Cardiac Contractility In Vivo in Heart Failure Rat Model
Based on the ex vivo findings in isolated heart assay, APJ agonists were dosed in vivo to investigate the translation of cardiac contractility in in vivo settings. Male Lewis rats (Charles River, USA) at 2-3 months of age were used for the study. Heart failure was induced by permanent ligation of the left descending coronary artery which results in injury to the heart with an ejection fraction of <35%. APJ agonists were administered dose dependently acutely for a period of 30 min. Administration of example compounds lead to an increase in cardiac contractility as measured by dP/dtmax (derivative of left ventricular pressure) (Table 41).
Consider `C[C@H](CS)C(=O)N1CCC[C@H]1C(=O)O` [Captopril], for which the “improvement in contractility or ejection fraction” value is on record as “does not show a marked improvement in contractility or ejection fraction”.

Tested on in another series: not given
Experiment: not given
To be noted: cited from earlier work.
Take “Apelin-13 (QRPRLSHKGPMPF; Apelin-13; UniProt Q9ULZ1 65-77, looked up)”: the plasma half-life is given as below 5 min.
